Converted amounts (≈) assume the structure as drawn. “Also recorded” adds a separate entry of the source. Numbered stars: 1 amine (or outer) side, 2 acyl side, 3 side chain; on linkers, the order of the positions; unused ones are H or OH. Square brackets hold non-standard residues; d marks the D form. Peptide text beside a SMILES is read from it. dAla(ψthiazole) = C[C@@H](N[*:1])c1nc(C(=O)[*:2])cs1; Trp(4-OMe) = COc1cccc2[nH]cc(C[C@H](N)C(=O)O)c12; Dha = C=C(N)C(=O)O; Sar = CNCC(=O)O

Data set [1] deals with p27-GFP (clone H15GFP-p27, HeLa-cell line; cervix-carcinoma). The data set can be described thus: GFP-fluorescence per FACS in clone H15GFP-p27. The data set is classed as cell-based, human. The note with it: GFP-fluorescence per FACS after 24 h incubation, 500 ng/ml. An excerpt:
Human p27cDNA (in plasmid vector CS2+) was digested with EcoR1 and BamH1, and the resulting fragment was ligated after gel purification into the vector pEGFP-N1 (Clontech) that was cut with the same restriction enzymes. Thus, a […] fusion with the GFP as contained in the pEGFP-vector was generated. The plasmid was then transfected into Hela cells, and, following selection of the cells with kanamycin, cellular clones were isolated which had the plasmid integrated stably into their chromosome. The expression of the p27EGFP proteins was confirmed using Western blots and immune precipitations for both p27 and GFP.
(§1) The following table summarizes the effects of argyrin-derivatives A to H on two cancer cell lines, H15 (cervix carcinoma) and SW-480 (colon cancer). In order to test the efficacy, a p27-GFP-clone was used.

The test system of the next data set is H15 (cervix carcinoma). The data set can be described thus: MIC (visual), serial dilution, H15. The data set is classed as cell-based, human. The note with it: minimal concentration of a serial dilution exhibiting a visual effect.
Text: as §1

For data set [2], the system named is SW-480 (colon cancer cell line). The data set can be described thus: MTT-test proliferation of SW-480. The data set is classed as cell-based, human. The note with it: half-maximal inhibition of proliferation. On the procedure: (§2) MTT assays were done as previously described (Sasse, F. et al. Argyrins, immunosuppressive cyclic peptides from myxobacteria. I. Production, isolation, physico-chemical and biological properties. J Antibiot (Tokyo) 55, 543-51 (2002)). TUNEL staining of tissue sections was performed on 10 micrometer sections which were deparafinised and treated as recommended by the manufacturer. (In Situ Cell Death Detection Kit, Fluorescein; ROCHE, Cat #11 684 795 910). Flow cytometric analysis of cultured cells was done using a Becton Dickinson fluorescence cytometer as previously described (Malek, N. P. et al. A mouse knock-in model exposes sequential proteolytic pathways that regulate p27^Kip1 in G1 and S phase. Nature 413, 323-7 (2001)). Analysis of the distribution of cells in the cell cycle and the sub-G1 fraction was done using Cell Quest software. A histone-associated-DNA-fragments ELISA was used to determine the number of apoptotic cells according to manufacturers instructions (Roche #11 774425001).

In data set [3] the test system is primary human fibroblasts. The data set can be described thus: Flow cytometry cell cycle / sub-G1 analysis. The data set is classed as cell-based. The note with it: at ranges of IC50. On the procedure:
(§3) The expression levels of p27^kip1 were determined at the indicated timepoints by western blotting and normalized against actin expression which was used as an internal control.
as §2
On the technique in general: Flow cytometry measures light scatter and fluorescence of single cells or particles in a stream.

In the next data set the test system is A549 (lung cancer). The data set can be described thus: Flow cytometry cell cycle / sub-G1 analysis. The data set is classed as cell-based, human. The note with it: at ranges of IC50. The method, then: as §3, §2
For data set [4], the system named is CaCo colon carcinoma cell line. Description: Flow cytometry cell cycle / sub-G1 analysis. The data set is classed as cell-based, human. The note with it: at ranges of IC50; sub G1 phase fraction. The method, then: as §3, §2
For data set [5], the system named is HCT116 colon carcinoma cells. Description: Flow cytometry cell cycle / sub-G1 analysis. The data set is classed as cell-based, human. The note with it: at ranges of IC50. The method, then:
as §3, §2

A further data set has as its system HeLa (cervix carcinoma). The data set can be described thus: Flow cytometry cell cycle / sub-G1 analysis. The data set is classed as cell-based, human. The note with it: at ranges of IC50; sub G1 phase fraction. On the procedure: as §3, §2
Another data set relates to MCF7 (breast cancer). The data set can be described thus: Flow cytometry cell cycle / sub-G1 analysis. The data set is classed as cell-based, human. The note with it: at ranges of IC50; sub G1 phase fraction. The method, then: as §3, §2
For data set [6], the system named is SW480 colon carcinoma cell line. Description: Flow cytometry cell cycle / sub-G1 analysis. The data set is classed as cell-based, human. The note with it: at ranges of IC50; sub G1 phase fraction. On the procedure: as §3, §2
Data set [7] has as its system p27^kip1. The data set can be described thus: p27^kip1 expression time course by western blotting. The note with it: SW480, HCT116 and HeLa cells. The data set is classed as cell-based, human. On the procedure: as §3
(§4) Immunohistochemical staining of mouse tumour tissue, western Blotting and immunofluorescence experiments were done as previously described (Timmerbeul, I. et al. Testing the importance of p27 degradation by the SCFskp2 pathway in murine models of lung and colon cancer. Proc Natl Acad Sci USA 103, 14009-14 (2006). Kossatz, U. et al. C-terminal phosphorylation controls the stability and function of p27^kip1. Embo J 25, 5159-70 (2006).). The following antibodies were used: p27 (Cat. No. K25020-150; Transduction Labs), p21 (N20; Santa Cruz), p53 (FL-393; Santa Cruz), NfKB (C-20; Santa Cruz), Bax (P-19; Santa Cruz), Alexa fluor 488 (# A11001; Invitrogen), 20S-proteasome subunit beta 2 (Z) (PW9300; Bio-mol, for human cells), 20S-proteasome subunit beta 2 (Z) (PW8145; BIO TREND, for mouse cells); 20S proteasome subunit beta 1(Y) (PW8140; BIO TREND), 20S proteasome subunit beta 5 (PW8895; BIO TREND); PECAM Antibody clone MEC 13.3 (#550274; BD Pharmingen).
(In western blotting, separated proteins are transferred to a membrane and probed.)

In data set [8] the test system is p27^kip1. Description: p27^kip1 half life in cycloheximide treated cells. The note with it: HeLa and SW480 cells, cycloheximide 25 μg/mL. The data set is classed as cell-based, human. On the procedure: The inventors therefore conclude that Argyrin A prevents the degradation of p27 due to its proteasome inhibitory activity in vivo and induces apoptosis or G1 arrest in a variety of different tumour cell lines.
as §3

For a further data set, the system named is p53, p21, BAX and NfκB. The data set can be described thus: Accumulation of proteasome substrates by western blotting. The data set is classed as cell-based, human. The note with it: SW480 and HCT116 cell lines. On the procedure: as §3, §4
Data set [9] in a line: Body weight and tolerability of treated tumour bearing mice. The data set is classed as in vivo.

For the compound `C=C1NC(=O)[C@@H](C)NC(=O)CNC(=O)[C@H](Cc2c[nH]c3cccc(OC)c23)NC(=O)[C@H](Cc2c[nH]c3ccccc23)NC(=O)c2csc(n2)[C@@H](C)NC(=O)CN(C)C1=O` [Argyrin A] (cyclo(W[Trp(4-OMe)]G[dA][Dha][Sar][dAla(ψthiazole)])), in data set [1], the “Mean of FSC-H (Log) H15 p27-GFP-clone” value was 8.52. Besides, the “MIC (visual) H15” value against H15 (cervix carcinoma) came to 4 µg/mL (≈ 4.85 µM). Further, the “IC-50 SW-480” value in data set [2] was “Ca. 0.05 μg/ml”. In addition, the cellular phenotype entry is “stopped to proliferate” in [3]; “stopped to proliferate” with A549 (lung cancer); “underwent apoptosis” in data set [4]; “stopped to proliferate” in [5]; “underwent apoptosis” with HeLa (cervix carcinoma); “underwent apoptosis” in the data set with MCF7 (breast cancer). In data set [6], the cellular phenotype result is recorded as “underwent apoptosis”. In addition, the “cellular p27^kip1 levels” value with p27^kip1 [7] was “increase”. The p27 turnover entry in the data set with p27^kip1 [8] was “complete block”. For the same compound, in the data set on p53, p21, BAX and NfκB, the “levels of proteasome substrates p53, p21, BAX and NfκB” value was “accumulated”. The “discomfort, weight loss, disease / tolerability” value in [9] is “very well tolerated; also recorded: did not observe any signs of discomfort, weight loss”.
